Laboratory results reported in US3950379A, “2-Cyano-diphenyl ethers” (Rohm and Haas Company, priority 1974, dated 1976).

Assays:
Type in all cases: in vivo
[1] = tested on: Dicots; assay: Herbicidal activity, postemergence, dicot weeds in flats (% control); details: post-emergence, 336 h, dicots (4 species, average), 10 lb./A., about 2 weeks after application, percent of plants killed
Method: (§1) Using the procedure described below, diphenyl ethers were evaluated for control of the following weeds: At 10 pounds per acre: […]
(§2) bindweed (Convolvulus arvensis) curly dock (Rumex crispus) velvetleaf (Abutilon theophrasti) wild mustard (Brassica haber)
(§3) At 2 and 4 pounds per acre: […]
(§4) cocklebur (Xanthium pensylvanicum) […]
(§5) lambsquarters (Chenopodium album) morningglory (Ipomoea purpurea) pigweed (Amaranthus retroflexus) smartweed (Polygonum pensylvanicum) […]
(§6) wild carrot (Daucus carota)
(§7) The following test procedure is employed. Seeds of selected crops and weeds are planted in soil in flats. For preemergence tests, the flats are treated with the test compound immediately after the planting. For post-emergence tests, the seeds are allowed to germinate, and after 2 weeks the flats are treated with the test compound. The compound to be evaluated is dissolved in acetone, diluted with water, and sprayed over the flats using a carrier volume equivalent to 50 gallons per acre at the rate of application (pounds per acre, lb/A.) specified in the tables. About 2 weeks after the application of the test compound, the state of growth of the plant is observed and the phytotoxic effect of the compound is evaluated. Table II gives the average percent control achieved by the test compounds in terms of the percent of the plants which are killed by the compounds.

[2] = tested on: Monocots; assay: Herbicidal activity, postemergence, monocot weeds in flats (% control); details: post-emergence, 336 h, about 2 weeks after application, percent of plants killed; for activity at 11208.5 g/ha: monocots (4 species, average), 10 lb./A.; for activity at 4483.4 g/ha / activity at 2241.7 g/ha: monocots (10 species, average); for activity at 4483.4 g/ha: 4 lb./A.; for activity at 2241.7 g/ha: 2 lb./A.
Method: as §1
(§8) barnyardgrass (Echinochloa crusgalli) crabgrass (Digitaria spp.) nutsedge (Cyperus esculentus)
as §3
(§9) downy brome (Bromus tectorum) foxtail (Setaria faberii)
(§10) Johnsongrass (Sorghum halepense) […]
(§11) quackgrass (Agropyron repens) ryegrass (Lolium perenne) […]
(§12) yellow millet (Panicum miliaceum)
as §7

[3] = tested on: Monocots; assay: Herbicidal activity, preemergence, monocot weeds in flats (% control); details: pre-emergence, 336 h, about 2 weeks after application, percent of plants killed; for activity at 11208.5 g/ha: monocots (4 species, average), 10 lb./A.; for activity at 4483.4 g/ha / activity at 2241.7 g/ha: monocots (10 species, average); for activity at 4483.4 g/ha: 4 lb./A.; for activity at 2241.7 g/ha: 2 lb./A.
Method: as §1, §8, §3, §9, §10, §11, §12, §7

[4] = tested on: Dicots; assay: Herbicidal activity, preemergence, dicot weeds in flats (% control); details: pre-emergence, 336 h, dicots (4 species, average), 10 lb./A., about 2 weeks after application, percent of plants killed
Method: as §1, §2, §3, §4, §5, §6, §7

[5] = tested on: Dicots; assay: Herbicidal activity, postemergence, dicot weeds in flats (% control); details: post-emergence, 336 h, dicots (10 species, average), about 2 weeks after application, percent of plants killed; for activity at 4483.4 g/ha: 4 lb./A.; for activity at 2241.7 g/ha: 2 lb./A.
[6] = tested on: Dicots; assay: Herbicidal activity, preemergence, dicot weeds in flats (% control); details: pre-emergence, 336 h, dicots (10 species, average), about 2 weeks after application, percent of plants killed; for activity at 4483.4 g/ha: 4 lb./A.; for activity at 2241.7 g/ha: 2 lb./A.

SMILES	activity at 11208.5 g/ha [1]	activity at 11208.5 g/ha [2]	activity at 4483.4 g/ha [2]	activity at 11208.5 g/ha [3]	activity at 4483.4 g/ha [3]	activity at 11208.5 g/ha [4]	activity at 4483.4 g/ha [5]	activity at 4483.4 g/ha [6]	activity at 2241.7 g/ha [2]	activity at 2241.7 g/ha [3]	activity at 2241.7 g/ha [5]	activity at 2241.7 g/ha [6]
N#Cc1cc(F)ccc1Oc1ccc([N+](=O)[O-])cc1 [Example 1, 2-cyano-4-fluoro-4'-nitrodiphenyl ether]	100%	95%	44%	77%	47%	77%	58%	51%	–	–	–	–
N#Cc1cc(Cl)ccc1Oc1ccc([N+](=O)[O-])cc1 [Example 2]	100%	95%	44%	81%	49%	95%	64%	55%	–	–	–	–
N#Cc1cc(C(F)(F)F)ccc1Oc1ccc(Cl)cc1 [Example 3, 2-cyano-α,α,α-trifluoro-p-tolyl-4-chlorophenylether]	75%	17%	9%	10%	59%	10%	38%	40%	27%	65%	50%	61%
N#Cc1cc(C(F)(F)F)ccc1Oc1ccc(Br)cc1 [Example 4, 2-cyano-α, α, α-trifluoro-p-tolyl-4-bromophenyl ether]	85%	22%	34%	5%	67%	0%	56%	37%	34%	51%	50%	34%
N#Cc1ccc(Oc2ccc(C(F)(F)F)cc2C#N)cc1 [Example 5]	65%	25%	11%	70%	44%	77%	41%	50%	48%	42%	59%	47%
N#Cc1cc(C(F)(F)F)ccc1Oc1ccc(C(F)(F)F)cc1 [Example 6, 2-cyano-α, α, α-trifluoro-p-tolyl-α,α,α-trifluoro-p-tolyl ether]	75%	70%	–	0%	–	10%	–	–	34%	34%	49%	5%
N#Cc1cc(C(F)(F)F)ccc1Oc1ccc(Cl)c(Cl)c1 [Example 7]	77%	40%	36%	0%	66%	0%	64%	41%	36%	56%	55%	65%
